Source: patent US6956040B2, “Oxazolidinone piperazinyl derivatives as potential antimicrobials” (Ranbaxy Laboratories Limited, priority 2001, dated 2005)
Converted amounts (≈) assume the structure as drawn. Where two headings read alike, the source gives them in different places.

How the values were obtained:
MRSA 15187 = experiment: MIC, agar incorporation method; type: cell-based, Staphylococcus aureus
Procedure, shortened: (§1)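 Compounds in DMSO were added as doubling dilutions to molten Mueller Hinton agar. Spots of 10^4 CFU, diluted from a 0.5 McFarland suspension (1.5×10^8 CFU/ml), were incubated 18 hours (24 hours for MRSN studies). MIC (μg/ml) is the lowest concentration with no visible growth.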

S. aureus 25923 = experiment: MIC, agar incorporation method; type: cell-based, Staphylococcus aureus
Procedure, shortened: as §1

MRSA 33 = experiment: MIC, agar incorporation method; type: cell-based, Staphylococcus aureus
Procedure, shortened: (§2)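 Twofold dilutions of DMSO-dissolved compound in Mueller Hinton agar; spots of 10^4 CFU; 18 h growth. Endpoint: no-growth concentration.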

MRSA 562 [1] = experiment: MIC, agar incorporation method; type: cell-based, Staphylococcus aureus
Procedure, shortened: as §2

E. faecalis 29212 = experiment: MIC, agar incorporation method; type: cell-based, Enterococcus faecalis
Procedure, shortened: as §1

VRE 6A = experiment: MIC, agar incorporation method; type: cell-based, Enterococcus faecium
Procedure, shortened: as §1

S. pyogenes 19615 = experiment: MIC, agar incorporation method; type: cell-based, Streptococcus pyogenes
Procedure, shortened: as §1

S. pneum 6303 = experiment: MIC, agar incorporation method; type: cell-based, Streptococcus pneumoniae
Procedure, shortened: as §1

S. pneum AB 34 = experiment: MIC, agar incorporation method; type: cell-based, Streptococcus pneumoniae
Procedure, shortened: as §2

[2] = Changes in MIC under different conditions: Agar MIC; type: cell-based; details: strain not given
Experimental: (§3) The compounds of the invention display antibacterial activity when tested by the agar incorporation method. The following minimum inhibitory concentrations (μg/ml) were obtained for representative compounds of the invention which are given below in the following tables.
(§4) Briefly, the compounds were dissolved in DMSO and doubling dilution of the compounds were incorporated into Meuller Hilton agar before solidification. Inoculum was prepared by suspending 4 to 5 colonies into 5 ml of normal saline solution and adjusting the turbidity to 0.5 Macfarland turbidity standard tables (1.5×10^8 CFU/ml), after appropriate dilutions, 10^4 CFU/spot was transfered into the surface of dried plate and incubated for 18 hours (24 hours for MRSN studies). The concentration showing no growth of the inoculated culture was recorded as the MIC. Appropriate ATCC standard strains were simultaneously tested and result recorded only when the MIC's against standard antibiotics were within the acceptable range.

[3] = Changes in MIC under different conditions: Broth MIC; type: cell-based; details: strain not given
MRSA 562 [4] = experiment: In vivo activity against MRSA 562 (ED50); design: species or system Staphylococcus aureus
G+ve = experiment: Summary of in vitro activity (MIC) against G+ve bacteria; type: cell-based; details: for MIC: read-out: Geometric Mean of in vitro activity (MIC)
Experimental: as §3, §4

S. aureus = experiment: Summary of in vitro activity (MIC) against S. aureus; type: cell-based, Staphylococcus aureus; details: for MIC: read-out: Geometric Mean of in vitro activity (MIC)
Experimental: as §3, §4

E. faecalis = experiment: Summary of in vitro activity (MIC) against E. faecalis; type: cell-based, Enterococcus faecalis; details: for MIC: read-out: Geometric Mean of in vitro activity (MIC)
Experimental: as §3, §4

S. pneumoniae = experiment: Summary of in vitro activity (MIC) against S. pneumoniae; type: cell-based, Streptococcus pneumoniae; details: for MIC: read-out: Geometric Mean of in vitro activity (MIC)
Experimental: as §3, §4

[5] = S. aureus 25923, agar incorporation
[6] = MRSA 562, agar incorporation, Table 1
[7] = E. faecalis 29212, agar incorporation
[8] = S. pyogenes 19615, agar incorporation
[9] = S. pneum 6303, agar incorporation
[10] = S. pneum AB 34, agar incorporation

## CC(=O)NC[C@H]1CN(c2ccc(N3CCN(C(=O)c4ccoc4)CC3)c(F)c2)C(=O)O1 [Compound No. 08, (S)-N[[3-[3-Fluoro-4-[N-1[4-(3-furoyl)]piperazinyl]phenyl]2-oxo-5-oxazolidinyl]methyl]cetamide]
MRSA 15187; MRSA 15187, agar incorporation
  MIC: 1 µg/mL (≈ 2.32 µM)
S. aureus 25923; [5]
  MIC: 2 µg/mL (≈ 4.65 µM)
MRSA 33; MRSA 33, agar incorporation
  MIC: 1 µg/mL (≈ 2.32 µM)
MRSA 562 [1]; MRSA 562, Table 5
  MIC: 1 µg/mL (≈ 2.32 µM)
MRSA 562 [1]; [6]
  MIC: 1 µg/mL (≈ 2.32 µM)
E. faecalis 29212; [7]
  MIC: 1 µg/mL (≈ 2.32 µM)
VRE 6A; VRE 6A, agar incorporation
  MIC: 1 µg/mL (≈ 2.32 µM)
S. pyogenes 19615; [8]
  MIC: 1 µg/mL (≈ 2.32 µM)
S. pneum 6303; [9]
  MIC: 2 µg/mL (≈ 4.65 µM)
S. pneum AB 34; [10]
  MIC: 4 µg/mL (≈ 9.29 µM)
[2]
  Agar MIC: 1 µg/mL
[3]
  Broth MIC +50% Sheep serum: 4 µg/mL
  Broth MIC Normal MH broth: 2 µg/mL
MRSA 562 [4]
  ED50 (mg/kg body weight) PO: 25 mg/kg body weight

## CC(=O)NC[C@H]1CN(c2ccc(N3CCN(C(=O)c4ccc([N+](=O)[O-])s4)CC3)c(F)c2)C(=O)O1.Cl [Compound No. 29, (S)-N[[3-[3-Fluoro-4-[N-1[4-(5-nitro-2-thienoyl)]piperazinyl]-phenyl]2-oxo-5-oxazolidinyl]methyl]acetamide hydrochloride]
MRSA 15187; MRSA 15187, agar incorporation
  MIC: <0.1 µg/mL
S. aureus 25923; [5]
  MIC: 0.25 µg/mL
MRSA 33; MRSA 33, agar incorporation
  MIC: <0.1 µg/mL
MRSA 562 [1]; MRSA 562, Table 5
  MIC: <0.1 µg/mL
MRSA 562 [1]; [6]
  MIC: <0.1 µg/mL
E. faecalis 29212; [7]
  MIC: 1 µg/mL
VRE 6A; VRE 6A, agar incorporation
  MIC: 0.5 µg/mL
S. pyogenes 19615; [8]
  MIC: 1 µg/mL
S. pneum 6303; [9]
  MIC: 1 µg/mL
S. pneum AB 34; [10]
  MIC: 1 µg/mL
G+ve; G+ve, Number 49
  MIC50: 1 µg/mL
  MIC90: 1 µg/mL
S. aureus; S. aureus, Number 8
  MIC50: 0.064 µg/mL
  MIC90: 0.25 µg/mL
E. faecalis; E. faecalis, Number 7
  MIC50: 1 µg/mL
  MIC90: 1 µg/mL
S. pneumoniae; S. pneumoniae, Number 19
  MIC50: 1 µg/mL
  MIC90: 1 µg/mL
[2]
  Agar MIC: <0.1 µg/mL
[3]
  Broth MIC +50% Sheep serum: 0.5 µg/mL
  Broth MIC Normal MH broth: 0.25 µg/mL
MRSA 562 [4]
  ED50 (mg/kg body weight) PO: >25 mg/kg body weight

## CC(=O)NC[C@H]1CN(c2ccc(N3CCOCC3)c(F)c2)C(=O)O1 [Linezolid, reference compound]
MRSA 15187; Staphylococcus aureus, MRSA 15187, agar incorporation, read-out: MIC
  MIC: 1 µg/mL (≈ 2.96 µM)
S. aureus 25923; Staphylococcus aureus, S. aureus 25923, agar incorporation, read-out: MIC
  MIC: 2 µg/mL (≈ 5.93 µM)
MRSA 33; Staphylococcus aureus, MRSA 33, agar incorporation, read-out: MIC
  MIC: 2 µg/mL (≈ 5.93 µM)
MRSA 562 [1]; MRSA 562, Table 5
  MIC: 2 µg/mL (≈ 5.93 µM)
MRSA 562 [1]; Staphylococcus aureus, MRSA 562, agar incorporation, Table 1, read-out: MIC
  MIC: 2 µg/mL (≈ 5.93 µM)
E. faecalis 29212; Enterococcus faecalis, E. faecalis 29212, agar incorporation, read-out: MIC
  MIC: 2 µg/mL (≈ 5.93 µM)
VRE 6A; Enterococcus, VRE 6A, agar incorporation, read-out: MIC
  MIC: 2 µg/mL (≈ 5.93 µM)
S. pyogenes 19615; Streptococcus pyogenes, S. pyogenes 19615, agar incorporation, read-out: MIC
  MIC: 2 µg/mL (≈ 5.93 µM)
S. pneum 6303; Streptococcus pneumoniae, S. pneum 6303, agar incorporation, read-out: MIC
  MIC: 2 µg/mL (≈ 5.93 µM)
S. pneum AB 34; Streptococcus pneumoniae, AB34, S. pneum AB 34, agar incorporation, read-out: MIC
  MIC: 4 µg/mL (≈ 11.9 µM)
G+ve; G+ve, Number 49, read-out: MIC50
  MIC50: 2 µg/mL (≈ 5.93 µM)
G+ve; G+ve, Number 49, read-out: MIC90
  MIC90: 4 µg/mL (≈ 11.9 µM)
G+ve; Gram +ve
  MIC: 1.25 µg/mL (≈ 3.71 µM)
S. aureus; Staphylococcus aureus, S. aureus, Number 8, read-out: MIC50
  MIC50: 2 µg/mL (≈ 5.93 µM)
S. aureus; Staphylococcus aureus, S. aureus, Number 8, read-out: MIC90
  MIC90: 4 µg/mL (≈ 11.9 µM)
S. aureus; Staphylococcus aureus, S. aureus
  MIC: 2.38 µg/mL (≈ 7.05 µM)
E. faecalis; Enterococcus faecalis, E. faecalis, Number 7, read-out: MIC50
  MIC50: 4 µg/mL (≈ 11.9 µM)
E. faecalis; Enterococcus faecalis, E. faecalis, Number 7, read-out: MIC90
  MIC90: 16 µg/mL (≈ 47.4 µM)
E. faecalis; Enterococcus faecalis, E. faecalis
  MIC: 4 µg/mL (≈ 11.9 µM)
S. pneumoniae; Streptococcus pneumoniae, S. pneumoniae, Number 19, read-out: MIC50
  MIC50: 0.5 µg/mL (≈ 1.48 µM)
S. pneumoniae; Streptococcus pneumoniae, S. pneumoniae, Number 19, read-out: MIC90
  MIC90: 2 µg/mL (≈ 5.93 µM)
S. pneumoniae; Streptococcus pneumoniae, S. pneumoniae
  MIC: 0.6 µg/mL (≈ 1.78 µM)
[2]
  Agar MIC: 2 µg/mL
[3]
  Broth MIC +50% Sheep serum: 2 µg/mL
  Broth MIC Normal MH broth: 1 µg/mL

## CN[C@H](CC(C)C)C(=O)N[C@H]1C(=O)N[C@@H](CC(N)=O)C(=O)N[C@H]2C(=O)N[C@H]3C(=O)N[C@H](C(=O)N[C@H](C(=O)O)c4cc(O)cc(O)c4-c4cc3ccc4O)[C@H](O)c3ccc(c(Cl)c3)Oc3cc2cc(c3O[C@@H]2O[C@H](CO)[C@@H](O)[C@H](O)[C@H]2O[C@H]2C[C@](C)(N)[C@H](O)[C@H](C)O2)Oc2ccc(cc2Cl)[C@H]1O [Vancomycin, reference compound]
MRSA 15187; Staphylococcus aureus, MRSA
  MIC: 0.5 µg/mL (≈ 0.345 µM)
S. aureus 25923; Staphylococcus aureus, 25923
  MIC: 1 µg/mL (≈ 0.69 µM)
MRSA 33; Staphylococcus aureus, MRSA
  MIC: 0.5 µg/mL (≈ 0.345 µM)
MRSA 562 [1]; MRSA 562, Table 5
  MIC: 0.5 µg/mL (≈ 0.345 µM)
MRSA 562 [1]; Staphylococcus aureus, MRSA
  MIC: 0.5 µg/mL (≈ 0.345 µM)
E. faecalis 29212; Enterococcus faecalis, 29212
  MIC: 4 µg/mL (≈ 2.76 µM)
VRE 6A; Enterococcus, VRE
  MIC: > 16 µg/mL
S. pyogenes 19615; Streptococcus pyogenes, 19615
  MIC: 0.5 µg/mL (≈ 0.345 µM)
S. pneum 6303; Streptococcus pneumoniae, 6303
  MIC: 0.5 µg/mL (≈ 0.345 µM)
S. pneum AB 34; Streptococcus pneumoniae, AB34
  MIC: 0.25 µg/mL (≈ 0.173 µM)
G+ve
  MIC50: 0.5 µg/mL (≈ 0.345 µM)
  MIC90: 16 µg/mL (≈ 11 µM)
  MIC: 0.93 µg/mL (≈ 0.642 µM)
S. aureus; Staphylococcus aureus
  MIC50: 1 µg/mL (≈ 0.69 µM)
  MIC90: 1 µg/mL (≈ 0.69 µM)
  MIC: 1 µg/mL (≈ 0.69 µM)
E. faecalis; Enterococcus faecalis
  MIC50: 16 µg/mL (≈ 11 µM)
  MIC90: 16 µg/mL (≈ 11 µM)
  MIC: 9.75 µg/mL (≈ 6.73 µM)
S. pneumoniae; Streptococcus pneumoniae
  MIC50: 0.5 µg/mL (≈ 0.345 µM)
  MIC90: 0.5 µg/mL (≈ 0.345 µM)
  MIC: 0.39 µg/mL (≈ 0.269 µM)
[2]
  Agar MIC: 1 µg/mL
[3]
  Broth MIC +50% Sheep serum: 1 µg/mL
  Broth MIC Normal MH broth: 1 µg/mL
